The results in this text go back to ChEMBL document CHEMBL1201862, “PubChem BioAssay data set” (2004).

In assay [1] the target is Luciferin 4-monooxygenase (Photinus pyralis, UniProt P08659). The assay can be described thus: firefly luciferase enzyme inhibitors, dose response, biochemical, luminescence (AID 1891).
Assay [2] can be described thus: Luminescence Cell-Based Dose Confirmation HTS to Identify Inhibitors of Platelet Dense Granule Release. [Related pubchem assays: 1663 (Primary HTS), 1678 (Summary of Project)]. It is filed as functional.
The test system of assay [3] is Streptococcus sp. 'group A'. Nature of the assay: growth inhibition of control SK(-) GAS strain, dose response, counter-screen for streptokinase expression inhibitor project, luminescence, kanamycin, BacTiterGlo, confirmation (AID 1900). Format: functional, organism-based. (A counterscreen serves to expose hits that act by an unwanted route or on another target.)
Assay [4] deals with T1, Streptokinase A (Streptococcus pyogenes serotype M1, UniProt P10520).
T1 sequence (P10520 whole entry): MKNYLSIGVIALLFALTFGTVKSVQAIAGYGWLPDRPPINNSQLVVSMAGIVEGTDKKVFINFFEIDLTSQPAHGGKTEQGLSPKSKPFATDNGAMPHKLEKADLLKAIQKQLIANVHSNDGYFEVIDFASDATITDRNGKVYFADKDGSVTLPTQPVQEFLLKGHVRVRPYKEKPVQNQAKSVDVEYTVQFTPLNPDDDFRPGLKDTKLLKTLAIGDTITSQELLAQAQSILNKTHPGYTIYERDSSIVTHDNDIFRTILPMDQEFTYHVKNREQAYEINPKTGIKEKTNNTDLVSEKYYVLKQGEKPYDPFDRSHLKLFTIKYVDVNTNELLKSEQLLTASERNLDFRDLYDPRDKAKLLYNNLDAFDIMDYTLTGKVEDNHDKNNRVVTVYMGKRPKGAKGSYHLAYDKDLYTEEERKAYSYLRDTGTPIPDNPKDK
Nature of the assay: S. pyogenes streptokinase expression inhibitors, potency, dose response, plasminogen activation absorbance, OD405 (AID 1914).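 Also: secreted streptokinase activity via plasminogen activation per viability signal from cell pellet.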 Format: functional, Streptococcus pyogenes M1 GAS.

In assay [5] the test system is Streptococcus. Nature of the assay: Group A Streptococcus viability loss, dose response, counter-screen for streptokinase expression inhibitor project, luminescence, BacTiterGlo (AID 1915).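 Also: potency for reduction of bacterial viability or growth.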 Format: functional, organism-based.
Assay [6] deals with INS1. The assay can be described thus: beta cell apoptosis inhibitors, cytokine rescue, dose response, luminescence, retest (AID 449756).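 Also: cell death triggered by IL-1 beta plus TNF-alpha plus IFN-gamma mixture; protective hits raise ATP signal compared with cytokine alone wells.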 Particulars: Rattus norvegicus. It is filed as functional, cell-based.
Assay [7] concerns the target T2, RNA-binding protein pos-1 (Caenorhabditis elegans, UniProt G5EF15).
T2 sequence (G5EF15 whole entry): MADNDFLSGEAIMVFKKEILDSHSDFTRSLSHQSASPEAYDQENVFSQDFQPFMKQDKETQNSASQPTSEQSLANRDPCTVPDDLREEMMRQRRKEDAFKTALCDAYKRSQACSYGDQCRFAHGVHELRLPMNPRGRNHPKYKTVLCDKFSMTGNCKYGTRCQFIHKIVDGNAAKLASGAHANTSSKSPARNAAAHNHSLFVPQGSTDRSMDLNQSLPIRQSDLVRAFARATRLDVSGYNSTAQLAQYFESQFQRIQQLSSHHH
The assay can be described thus: inhibitors of POS-1/mex-3 RNA binding, dose response, biochemical, fluorescence polarization (AID 1964).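 Also: purified POS-1 fused to maltose binding protein made in E. coli; potency of compounds blocking POS-1 binding to fluorescent RNA.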 On the technique in general: Polarisation of emitted light reports the rotation of a fluorescent probe.

Assay [8] addresses T3, Zinc finger protein mex-5 (Caenorhabditis elegans, UniProt Q9XUB2).
T3 sequence (Q9XUB2 whole entry): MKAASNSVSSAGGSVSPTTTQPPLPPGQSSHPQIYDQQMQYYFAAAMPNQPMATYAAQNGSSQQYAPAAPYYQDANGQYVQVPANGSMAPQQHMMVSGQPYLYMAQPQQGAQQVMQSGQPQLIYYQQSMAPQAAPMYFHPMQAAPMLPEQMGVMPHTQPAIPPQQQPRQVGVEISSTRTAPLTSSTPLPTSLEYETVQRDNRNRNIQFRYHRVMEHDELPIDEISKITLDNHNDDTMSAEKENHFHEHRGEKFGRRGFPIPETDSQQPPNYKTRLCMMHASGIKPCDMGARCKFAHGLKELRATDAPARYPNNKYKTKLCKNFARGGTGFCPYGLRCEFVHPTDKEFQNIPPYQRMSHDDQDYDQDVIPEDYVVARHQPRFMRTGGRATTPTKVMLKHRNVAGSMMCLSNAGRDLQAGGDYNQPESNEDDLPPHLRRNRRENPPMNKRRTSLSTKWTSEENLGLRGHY
Nature of the assay: MEX-5/TCR-2 RNA interaction inhibitors, dose response, biochemical, C. elegans, fluorescence polarization (AID 1960).

Assay [9] in a line: Luminescence Cell-Based Dose Confirmation HTS to Identify Activators of 5'UTR Stem-Loop Driven Alpha-Synuclein mRNA Translation in H4 Neuroglioblastoma Cells. [Related pubchem assays: 1829 (Project Summary), 1814 (Primary HTS)]. Format: functional.
The nature of assay [10]: Luminescence Cell-Based Dose Response HTS to Identify Activators of Luciferase Translation or Activity in H4 […] Cells. [Related pubchem assays: 1829 (Project Summary), 1814 (Primary HTS)]. Format: functional.
The subject of assay [11] is H4. The assay can be described thus: Luminescence Cell-Based Dose Response HTS to Identify Activators of 5'UTR Stem-Loop Driven Prion Protein mRNA Translation in H4 Neuroglioblastoma Cells. [Related pubchem assays: 1829 (Project Summary), 1814 (Primary HTS)]. Particulars: Homo sapiens. Format: functional.
Assay [12] can be described thus: Luminescence Cell-Based Dose Retest to Confirm Inhibitors of Cancer Stem Cells. [Related pubchem assays (depositor defined):AID2717, AID2721]. Format: functional. Particulars: Homo sapiens.
Assay [13] concerns the target T4, Heat shock factor protein 1 (Mus musculus, UniProt P38532).
T4 sequence (P38532 whole entry): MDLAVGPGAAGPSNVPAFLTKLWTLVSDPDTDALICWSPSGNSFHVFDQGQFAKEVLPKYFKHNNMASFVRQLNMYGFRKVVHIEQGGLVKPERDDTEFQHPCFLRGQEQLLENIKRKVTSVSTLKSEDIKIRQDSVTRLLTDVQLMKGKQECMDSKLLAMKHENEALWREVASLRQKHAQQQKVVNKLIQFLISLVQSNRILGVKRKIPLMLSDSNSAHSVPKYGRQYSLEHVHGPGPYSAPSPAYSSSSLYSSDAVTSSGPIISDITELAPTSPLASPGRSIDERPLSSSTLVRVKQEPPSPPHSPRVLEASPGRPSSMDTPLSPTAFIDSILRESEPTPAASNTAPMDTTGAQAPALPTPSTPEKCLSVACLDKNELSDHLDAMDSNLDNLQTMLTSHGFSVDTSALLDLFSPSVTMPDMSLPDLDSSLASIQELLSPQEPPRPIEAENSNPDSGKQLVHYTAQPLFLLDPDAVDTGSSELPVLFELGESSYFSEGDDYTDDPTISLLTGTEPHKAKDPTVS
Nature of the assay: inhibition of MG132-induced HSE-luciferase signal, confirmation, cell-based, NIH3T3, luminescence, dose retest (AID 2382).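 Also: NIH3T3 fibroblasts with HSF1-driven luciferase reporter stressed by proteasome inhibitor MG132; luminescence from HSF1-driven luciferase expression after 8 hours of MG132 stress.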 It is filed as functional.

For assay [14], the target named is Cytochrome P450 2C9 (Homo sapiens, UniProt P11712).
Sequence of Cytochrome P450 2C9 (P11712 whole entry): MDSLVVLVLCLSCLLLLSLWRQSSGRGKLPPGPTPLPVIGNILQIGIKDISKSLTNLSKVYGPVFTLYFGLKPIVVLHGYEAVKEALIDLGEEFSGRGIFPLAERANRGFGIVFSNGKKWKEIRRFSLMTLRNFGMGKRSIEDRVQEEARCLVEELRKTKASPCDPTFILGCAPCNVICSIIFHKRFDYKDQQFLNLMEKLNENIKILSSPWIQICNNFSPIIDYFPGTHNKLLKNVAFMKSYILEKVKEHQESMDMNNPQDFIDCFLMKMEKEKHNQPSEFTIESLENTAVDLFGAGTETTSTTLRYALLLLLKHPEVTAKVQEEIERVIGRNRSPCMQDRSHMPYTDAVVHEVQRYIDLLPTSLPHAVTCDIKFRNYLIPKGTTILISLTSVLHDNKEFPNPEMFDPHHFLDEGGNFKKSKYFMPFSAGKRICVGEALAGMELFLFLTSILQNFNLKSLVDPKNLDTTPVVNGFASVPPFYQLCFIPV
Assay [15] addresses T5, Rac GTPase-activating protein 1 (Homo sapiens, UniProt Q9H0H5).
T5 sequence (Q9H0H5 whole entry): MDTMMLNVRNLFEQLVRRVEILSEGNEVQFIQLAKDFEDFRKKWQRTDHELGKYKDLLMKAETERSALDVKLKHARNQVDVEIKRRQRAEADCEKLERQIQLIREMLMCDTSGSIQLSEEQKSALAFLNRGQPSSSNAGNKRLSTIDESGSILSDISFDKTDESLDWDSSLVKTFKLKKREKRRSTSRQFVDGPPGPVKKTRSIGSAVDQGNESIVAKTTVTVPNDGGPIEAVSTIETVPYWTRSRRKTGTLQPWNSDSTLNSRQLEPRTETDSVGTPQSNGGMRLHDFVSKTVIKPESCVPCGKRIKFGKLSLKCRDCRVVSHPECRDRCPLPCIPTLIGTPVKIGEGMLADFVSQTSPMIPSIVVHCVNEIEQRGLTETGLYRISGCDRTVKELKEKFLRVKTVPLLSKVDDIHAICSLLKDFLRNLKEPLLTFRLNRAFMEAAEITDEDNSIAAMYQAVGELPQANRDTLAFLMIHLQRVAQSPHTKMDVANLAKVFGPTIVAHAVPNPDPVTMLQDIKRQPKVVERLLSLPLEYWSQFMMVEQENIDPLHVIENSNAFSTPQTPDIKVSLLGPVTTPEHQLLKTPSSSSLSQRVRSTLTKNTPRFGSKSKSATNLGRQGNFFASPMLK
The assay can be described thus: MgcRacGAP GTPase-activating activity inhibitors, confirmation, biochemical, ADP Hunter fluorescence, primary and confirmatory (AID 624330). Format: functional.

The source made the active and inactive calls. Rule as the data show it, for most assays here: actives have a measured EC50 and inactives only a lower limit. Where only a bound is given, the exact number is not on record here.

Sequence of Luciferin 4-monooxygenase (P08659 whole entry): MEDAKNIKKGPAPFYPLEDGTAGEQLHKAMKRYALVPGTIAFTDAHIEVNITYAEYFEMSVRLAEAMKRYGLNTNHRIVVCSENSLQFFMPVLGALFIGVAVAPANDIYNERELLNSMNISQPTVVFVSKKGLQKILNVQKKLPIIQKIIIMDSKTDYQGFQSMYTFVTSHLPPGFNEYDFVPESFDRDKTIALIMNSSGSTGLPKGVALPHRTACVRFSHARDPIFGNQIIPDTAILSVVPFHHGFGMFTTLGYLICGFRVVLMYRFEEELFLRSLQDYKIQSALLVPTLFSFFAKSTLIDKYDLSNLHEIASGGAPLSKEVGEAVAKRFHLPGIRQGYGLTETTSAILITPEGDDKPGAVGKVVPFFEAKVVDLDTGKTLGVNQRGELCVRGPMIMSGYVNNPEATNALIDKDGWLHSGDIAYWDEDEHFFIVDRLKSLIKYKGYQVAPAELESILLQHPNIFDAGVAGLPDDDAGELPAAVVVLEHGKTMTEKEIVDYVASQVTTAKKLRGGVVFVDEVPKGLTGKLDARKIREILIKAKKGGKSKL

As to `Nc1cc(-c2ccccc2)nn1Cc1ccc(Cl)cc1`, the EC50 in [1] and in assay [2] was > 112 µM (not active) throughout.
As for `CCc1sc(N(C(=O)Cc2ccccc2)c2ccc(F)cc2)nc1-c1ccccc1`, the EC50 was > 150 µM (not active) in assay [3], 11.8 µM (active) in [4] and > 150 µM (not active) in assay [5].
On to `Cc1cccc(NC(S)=Nc2ccc3c[nH]nc3c2)c1`, for which the EC50 in [1] and in [2] was > 112 µM (not active) each time. Besides, the AC50 in assay [6] was > 260 µM (inactive).
As for `CC(C)C[C@H](NC(=O)N1CC(=O)Nc2ccccc21)C(=O)N[C@H](C(=O)O)c1ccccc1`, the EC50 in assay [3], in assay [4] and in assay [5] was > 150 µM (not active) in each case.
`COCCSc1ccccc1C(=O)Nc1ccc2c(c1)OCO2`: the EC50 in assay [1] and in assay [2] was > 112 µM (not active) throughout.
For the compound `CC(C)C(=O)Nc1ccc(NC(=S)NC(=O)c2ccccc2F)cc1`, the EC50 in assay [1] and in assay [2] was > 112 µM (not active) each time.
Take `COC(=O)c1ccccc1Oc1cc(C(F)(F)F)nc(-c2ccccn2)n1`: the 50% effective concentration (EC50) in assay [1] and in assay [2] was > 112 µM (not active) in each case.
Regarding `O=C(c1ccc(F)cc1)N1CCN(C2CCC(c3ccccc3)CC2)CC1` (stereo not given), the EC50 in assay [7] and in assay [8] was > 300 µM (not active) throughout.
For the compound `CCCCn1c(CCCNC(=O)c2ccco2)nc2ccccc21`, the EC50 in [3], in assay [4] and in [5] was > 150 µM (not active) throughout.
As to `CCOC(=O)CN1C(=O)C(O)=C(C(C)=O)C1c1ccc(F)cc1` (stereo not given), the EC50 in assay [1] and in assay [2] was > 112 µM (not active) in each case.
On to `COC(=O)/C(C#N)=C/c1c(Oc2cc(C)cc(C)c2)nc2c(C)cccn2c1=O`, for which the EC50 in [7] was 104 µM (active); in assay [8], > 300 µM (not active).
For the compound `Cc1ccc2cc(CN(Cc3cccs3)C(=O)c3ccco3)c3nnnn3c2c1C`, the results for the EC50 in [3], in assay [4] and in assay [5] were 2.28 µM (active), > 150 µM (not active) and 31.7 µM (active), respectively.
For `Cc1ccc(C2CCN(C(=O)Nc3ccccc3)C2)cc1` (stereo not given), the half-maximal effective concentration (EC50) in [1] and in assay [2] was > 112 µM (not active) in each case.
With `O=C(C1CCCN(c2ncnc3c2nc2n3CCCCC2)C1)N1CCN(c2ccccc2)CC1` (stereo not given), the EC50 in assay [9], in assay [10] and in assay [11] was > 120 µM (not active) in each case.
Consider `CC(C)(C)c1cc(C(=O)NNc2cc(C(F)(F)F)ccc2Cl)n(Cc2ccccc2)n1`, for which the figures for the EC50 in assay [3], in assay [4] and in [5] were 3.24 µM (active), > 150 µM (not active) and 8.74 µM (active), respectively. The AC50 in assay [12] was 3.81 µM (active).
For the compound `COc1ccc(NC(=O)CCl)cn1`, the values for the EC50 in [7] and in [8] were 9.67 µM (active) and 8.06 µM (active), respectively.
As to `Clc1ccc(N2COC3c4cccc5cccc(c45)C32)cc1` (stereo not given), the EC50 is 17.4 µM (active) in [3], 14.2 µM (active) in assay [4] and > 150 µM (not active) in assay [5].
On to `Fc1ccc(C2=CC(c3ccco3)n3ncnc3N2)cc1` (stereo not given), for which the values for the EC50 in assay [7] and in assay [8] were 14.7 µM (active) and 12.8 µM (active), respectively.
As for `S=C(Nc1ccccc1Cl)N(CCCN1CCOCC1)Cc1ccco1`, the EC50 in assay [1] and in assay [2] was > 112 µM (not active) in each case.
As to `COCCNC(=O)C1Nc2ccc(OC(F)(F)F)cc2C2C=CCC12` (stereo not given), the 50% effective concentration (EC50) in assay [7] and in assay [8] was > 300 µM (not active) throughout.
In the case of `CCc1ccc2[nH]c(O)c(N=Nc3nc(-c4ccccc4)cs3)c2c1`, the EC50 in assay [3] was 9.51 µM (active); in assay [13], > 195 µM (not active); in [4], > 150 µM (not active); in assay [5], 27.3 µM (active). Also, the AC50 in [14] was 39.8 µM (inconclusive).
For `Cc1ccc(O)c(/C=N/NC(=O)Cc2ccc(Cl)cc2)c1`, the EC50 in assay [3] is 3.25 µM (active); in [4] it was > 150 µM (not active); in assay [5], 13.6 µM (active).
With `COc1cc(/C=N/c2oc(-c3ccccc3)cc2C#N)ccc1O`, the EC50 in [7] and in assay [8] was > 300 µM (not active) each time.
In the case of `Nc1c(Cl)ncnc1N/N=C/c1ccc(O)cc1`, the EC50 in assay [1] was 7.55 µM (active); in [2] it was 0.779 µM (active). For the same compound, in [15], the IC50 was 16.5 µM (active).
`CC(C)C(C(=O)Nc1nccs1)c1ccc(Cl)cc1` (stereo not given): the results for the EC50 in assay [3], in [4] and in assay [5] were 12.7 µM (active), > 150 µM (not active) and > 150 µM (not active), respectively.

In general, EC50 refers to the concentration needed to bring the measured effect to its halfway point. What is called AC50 is the concentration giving half of the maximal activity seen. As a reminder, the IC50 is the point on the concentration scale where inhibition reaches its midpoint.
